Measured values reported in ChEMBL document CHEMBL1135214, “Meiosis activating sterols derived from diosgenin” (2002).
Active and inactive are the calls of the source. No cut-off for these calls is given here.

organism: Mus musculus; assay: Tested for ability to induce meiosis in immature mouse oocytes by measuring the rate of germinal vesicle breakdown (GVB) relative to FF-MAS; na means Not active; assay type: functional

| SMILES | Relative activity |
| --- | --- |
| C[C@@H](CO)CCC[C@@H](C)[C@H]1CCC2C3CC=C4C[C@@H](O)CC[C@]4(C)C3CC[C@@]21C (stereo partly drawn) | inactive |
| C[C@@H](CO)CCC[C@@H](C)[C@H]1CC=C2C3=C(CC[C@@]21C)[C@@]1(C)CC[C@H](O)C(C)(C)[C@@H]1CC3 | inactive |

organism: Mus musculus; assay: Tested for ability to induce meiosis in immature mouse oocytes by measuring the rate of germinal vesicle breakdown (GVB); assay type: functional

| SMILES | Activity |
| --- | --- |
| CC(C)=CCC[C@@H](C)[C@H]1CC=C2C3=C(CC[C@@]21C)[C@@]1(C)CC[C@H](O)C(C)(C)[C@@H]1CC3 | 100% |

organism: Mus musculus; assay: Tested for ability to induce meiosis in immature mouse oocytes by measuring the rate of germinal vesicle breakdown (GVB) relative to FF-MAS; assay type: functional; set-up: concentration or dose not given beside the values

| SMILES | Relative activity |
| --- | --- |
| CC(C)CCC[C@@H](C)[C@H]1[C@@H](O)CC2C3=CC=C4C(C)(C)[C@@H](O)CC[C@]4(C)C3CC[C@@]21C (stereo partly drawn) | 90% |
| CC(C)CCC[C@@H](C)[C@H]1[C@@H](O)CC2C3CC=C4CCCC[C@]4(C)C3CC[C@@]21C (stereo partly drawn) | 87% |
| C[C@@H](CCl)CCC[C@@H](C)[C@H]1CC=C2C3=C(CC[C@@]21C)[C@@]1(C)CC[C@H](O)C(C)(C)[C@@H]1CC3 | 87% |
| C[C@H](CCCC(C)(C)Cl)[C@H]1CC=C2C3=C(CC[C@@]21C)[C@@]1(C)CC[C@H](O)C(C)(C)[C@@H]1CC3 | 62% |
| C=C(C)CCC[C@@H](C)[C@H]1CC=C2C3=C(CC[C@@]21C)[C@@]1(C)CC[C@H](O)C(C)(C)[C@@H]1CC3 | 106% |
| C[C@@H](CI)CCC[C@@H](C)[C@H]1CC=C2C3=C(CC[C@@]21C)[C@@]1(C)CC[C@H](O)C(C)(C)[C@@H]1CC3 | 85% |
| C[C@@H](CO)CCC[C@@H](C)[C@H]1CCC2C3=CC=C4C(C)(C)[C@@H](O)CC[C@]4(C)C3CC[C@@]21C (stereo partly drawn) | 89% |
| CC(C)CCC[C@@H](C)[C@H]1[C@@H](O[Si](C)(C)C(C)(C)C)CC2C3CC=C4C[C@@H](O)CC[C@]4(C)C3CC[C@@]21C (stereo partly drawn) | 43% |
| CC(C)CCC[C@@H](C)[C@H]1[C@@H](O)CC2C3CC=C4C(C)(C)[C@@H](O)CC[C@]4(C)C3CC[C@@]21C (stereo partly drawn) | 113% |
| CC(CO)CCC[C@@H](C)[C@H]1CC[C@H]2[C@@H]3CC=C4C(C)(C)[C@@H](O)CC[C@]4(C)[C@H]3CC[C@]12C (single isomer, unassigned) | 71% |
